system: Phytophthora infestans (PHYTIN); test: microbe, parasite or virus in culture; type: cell-based; conditions: Phytophthora infestans, read-out: PHYTIN in vitro Growth Inhibition

SMILES	inhibition at 25 ppm
O=C(NCc1sccc1Cl)c1nc(Br)ccc1O [Compound 484]	< 80%
O=C(Nc1ccc(Cl)cc1)c1ncccc1O [Compound 213]	> 80%
COc1ccnc(C(=O)Nc2ccc(Oc3ccccc3Cl)cc2)c1O [Compound 441]	< 80%
COc1ccnc(C(=O)N[C@@H]2O[C@H](COC(C)=O)[C@H](OC(C)=O)[C@H](OC(C)=O)[C@H]2OC(C)=O)c1OC(C)=O [Compound 591]	< 80%

system: Mycosphaerella graminicola (Septoria tritici—SEPTTR); test: In vitro fungal growth inhibition, Mycosphaerella graminicola (SEPTTR); type: cell-based; conditions: Zymoseptoria tritici; 25 ppm in growth medium; read-out: SEPTTR in vitro Growth Inhibition

SMILES	inhibition at 25 ppm
O=C(Nc1ccc(Cl)cc1)c1ncccc1O [Compound 213]	> 80%
COc1ccnc(C(=O)Nc2ccc(Oc3ccccc3Cl)cc2)c1O [Compound 441]	> 80%

same assay, conditions: Zymoseptoria tritici; 25 ppm in the growth medium; read-out: SEPTTR in vitro Growth Inhibition

SMILES	inhibition at 25 ppm
O=C(NCc1sccc1Cl)c1nc(Br)ccc1O [Compound 484]	< 80%
COc1ccnc(C(=O)N[C@@H]2O[C@H](COC(C)=O)[C@H](OC(C)=O)[C@H](OC(C)=O)[C@H]2OC(C)=O)c1OC(C)=O [Compound 591]	< 80%

system: Septoria tritici—SEPTTR; test: Leaf Blotch of Wheat, in vivo whole plant, 24 Hour Protectant; conditions: Zymoseptoria tritici, 24 h, 100 ppm spray, 24 hour protectant, wheat; control of fungal infection vs untreated plants; read-out: SEPTTR in vivo 1 Day Protectant

SMILES	pest or weed control at 100 ppm
O=C(Nc1ccc(Cl)cc1)c1ncccc1O [Compound 213]	< 25%

same assay, conditions: Zymoseptoria tritici, 24 h, 100 ppm spray, wheat, 24 hour protectant; control of fungal infection vs untreated plants; read-out: SEPTTR in vivo 1 Day Protectant

SMILES	pest or weed control at 100 ppm
COc1ccnc(C(=O)Nc2ccc(Oc3ccccc3Cl)cc2)c1O [Compound 441]	< 25%

same assay, conditions: Zymoseptoria tritici, 24 h, wheat plants sprayed at 100 ppm, inoculated after 24 hours; control of fungal infection vs untreated plants; read-out: SEPTTR in vivo 1 Day Protectant

SMILES	pest or weed control at 100 ppm
O=C(NCc1sccc1Cl)c1nc(Br)ccc1O [Compound 484]	< 25%
COc1ccnc(C(=O)N[C@@H]2O[C@H](COC(C)=O)[C@H](OC(C)=O)[C@H](OC(C)=O)[C@H]2OC(C)=O)c1OC(C)=O [Compound 591]	25 to 74%

system: Rhizoctonia solani (RHIZSO); test: microbe, parasite or virus in culture; type: cell-based; conditions: Rhizoctonia solani, read-out: RHIZSO in vitro Growth Inhibition

SMILES	inhibition at 25 ppm
O=C(NCc1sccc1Cl)c1nc(Br)ccc1O [Compound 484]	< 80%
O=C(Nc1ccc(Cl)cc1)c1ncccc1O [Compound 213]	< 80%
COc1ccnc(C(=O)Nc2ccc(Oc3ccccc3Cl)cc2)c1O [Compound 441]	< 80%
COc1ccnc(C(=O)N[C@@H]2O[C@H](COC(C)=O)[C@H](OC(C)=O)[C@H](OC(C)=O)[C@H]2OC(C)=O)c1OC(C)=O [Compound 591]	< 80%

system: Magnaporthe grisea (Pyricularia oryzae—PYRIOR); test: microbe, parasite or virus in culture; type: cell-based; conditions: Pyricularia oryzae, read-out: PYRIOR in vitro Growth Inhibition

SMILES	inhibition at 25 ppm
O=C(NCc1sccc1Cl)c1nc(Br)ccc1O [Compound 484]	< 80%
O=C(Nc1ccc(Cl)cc1)c1ncccc1O [Compound 213]	< 80%
COc1ccnc(C(=O)Nc2ccc(Oc3ccccc3Cl)cc2)c1O [Compound 441]	< 80%
COc1ccnc(C(=O)N[C@@H]2O[C@H](COC(C)=O)[C@H](OC(C)=O)[C@H](OC(C)=O)[C@H]2OC(C)=O)c1OC(C)=O [Compound 591]	< 80%

system: Puccinia recondita—PUCCRT; test: Brown Rust of Wheat, in vivo whole plant, 24 Hour Protectant; conditions: 100 ppm spray, 24 hour protectant, wheat; control of fungal infection vs untreated plants

SMILES	PUCCRT in vivo 1 Day Protectant
O=C(Nc1ccc(Cl)cc1)c1ncccc1O [Compound 213]	+ +

same assay, conditions: Puccinia; 100 ppm spray, wheat, 24 hour protectant; control of fungal infection vs untreated plants; read-out: PUCCRT in vivo 1 Day Protectant

SMILES	pest or weed control at 100 ppm
COc1ccnc(C(=O)Nc2ccc(Oc3ccccc3Cl)cc2)c1O [Compound 441]	< 25%

same assay, conditions: Puccinia; wheat plants sprayed at 100 ppm, inoculated after 24 hours; control of fungal infection vs untreated plants; read-out: PUCCRT in vivo 1 Day Protectant

SMILES	pest or weed control at 100 ppm
O=C(NCc1sccc1Cl)c1nc(Br)ccc1O [Compound 484]	< 25%
COc1ccnc(C(=O)N[C@@H]2O[C@H](COC(C)=O)[C@H](OC(C)=O)[C@H](OC(C)=O)[C@H]2OC(C)=O)c1OC(C)=O [Compound 591]	< 25%

system: Ustilago maydis (USTIMA); test: microbe, parasite or virus in culture; type: cell-based; conditions: Mycosarcoma maydis, read-out: USTIMA in vitro Growth Inhibition

SMILES	inhibition at 25 ppm
O=C(NCc1sccc1Cl)c1nc(Br)ccc1O [Compound 484]	< 80%
O=C(Nc1ccc(Cl)cc1)c1ncccc1O [Compound 213]	< 80%
COc1ccnc(C(=O)Nc2ccc(Oc3ccccc3Cl)cc2)c1O [Compound 441]	< 80%
COc1ccnc(C(=O)N[C@@H]2O[C@H](COC(C)=O)[C@H](OC(C)=O)[C@H](OC(C)=O)[C@H]2OC(C)=O)c1OC(C)=O [Compound 591]	< 80%

system: Stagonospora nodorum (Leptosphaeria nodorum—LEPTNO); test: In vitro fungal growth inhibition, Stagonospora nodorum (LEPTNO); type: cell-based; conditions: Leptosphaeria; 25 ppm in growth medium; read-out: LEPTNO in vitro Growth Inhibition

SMILES	inhibition at 25 ppm
O=C(Nc1ccc(Cl)cc1)c1ncccc1O [Compound 213]	< 80%
COc1ccnc(C(=O)Nc2ccc(Oc3ccccc3Cl)cc2)c1O [Compound 441]	< 80%

same assay, conditions: Leptosphaeria; 25 ppm in the growth medium; read-out: LEPTNO in vitro Growth Inhibition

SMILES	inhibition at 25 ppm
O=C(NCc1sccc1Cl)c1nc(Br)ccc1O [Compound 484]	< 80%
COc1ccnc(C(=O)N[C@@H]2O[C@H](COC(C)=O)[C@H](OC(C)=O)[C@H](OC(C)=O)[C@H]2OC(C)=O)c1OC(C)=O [Compound 591]	< 80%

system: Phytophthora infestans—PHYTIN; test: whole plant or invertebrate; type: in vivo; conditions: Phytophthora, in Solanum lycopersicum, 24 h, read-out: PHYTIN in vivo 1 Day Protectant

SMILES	pest or weed control at 100 ppm
O=C(NCc1sccc1Cl)c1nc(Br)ccc1O [Compound 484]	< 25%
O=C(Nc1ccc(Cl)cc1)c1ncccc1O [Compound 213]	25 to 74%
COc1ccnc(C(=O)Nc2ccc(Oc3ccccc3Cl)cc2)c1O [Compound 441]	< 25%
COc1ccnc(C(=O)N[C@@H]2O[C@H](COC(C)=O)[C@H](OC(C)=O)[C@H](OC(C)=O)[C@H]2OC(C)=O)c1OC(C)=O [Compound 591]	< 25%

system: Erysiphe graminis—ERYSGT; test: Powdery Mildew of Wheat, in vivo whole plant, 24 Hour Protectant; conditions: Erysiphe; 100 ppm spray, 24 hour protectant, wheat; control of fungal infection vs untreated plants; read-out: ERYSGT in vivo 1 Day Protectant

SMILES	pest or weed control at 100 ppm
O=C(Nc1ccc(Cl)cc1)c1ncccc1O [Compound 213]	< 25%

same assay, conditions: Erysiphe; 100 ppm spray, wheat, 24 hour protectant; control of fungal infection vs untreated plants; read-out: ERYSGT in vivo 1 Day Protectant

SMILES	pest or weed control at 100 ppm
COc1ccnc(C(=O)Nc2ccc(Oc3ccccc3Cl)cc2)c1O [Compound 441]	< 25%

same assay, conditions: Erysiphe; wheat plants sprayed at 100 ppm, inoculated after 24 hours; control of fungal infection vs untreated plants; read-out: ERYSGT in vivo 1 Day Protectant

SMILES	pest or weed control at 100 ppm
O=C(NCc1sccc1Cl)c1nc(Br)ccc1O [Compound 484]	< 25%
COc1ccnc(C(=O)N[C@@H]2O[C@H](COC(C)=O)[C@H](OC(C)=O)[C@H](OC(C)=O)[C@H]2OC(C)=O)c1OC(C)=O [Compound 591]	< 25%

system: Leptosphaeria nodorum—LEPTNO; test: Glume Blotch of Wheat, in vivo whole plant, 24 Hour Protectant; conditions: Leptosphaeria; 100 ppm spray, 24 hour protectant, wheat; control of fungal infection vs untreated plants; read-out: LEPTNO in vivo 1 Day Protectant

SMILES	pest or weed control at 100 ppm
O=C(Nc1ccc(Cl)cc1)c1ncccc1O [Compound 213]	< 25%

same assay, conditions: Leptosphaeria; 100 ppm spray, wheat, 24 hour protectant; control of fungal infection vs untreated plants; read-out: LEPTNO in vivo 1 Day Protectant

SMILES	pest or weed control at 100 ppm
COc1ccnc(C(=O)Nc2ccc(Oc3ccccc3Cl)cc2)c1O [Compound 441]	< 25%

same assay, conditions: Leptosphaeria; wheat plants sprayed at 100 ppm, inoculated after 24 hours; control of fungal infection vs untreated plants; read-out: LEPTNO in vivo 1 Day Protectant

SMILES	pest or weed control at 100 ppm
O=C(NCc1sccc1Cl)c1nc(Br)ccc1O [Compound 484]	< 25%
COc1ccnc(C(=O)N[C@@H]2O[C@H](COC(C)=O)[C@H](OC(C)=O)[C@H](OC(C)=O)[C@H]2OC(C)=O)c1OC(C)=O [Compound 591]	25 to 74%

— patent US6706740B2, “Fungicidal heterocyclic aromatic amides and their compositions, methods of use and preparation” (Dow AgroSciences LLC, priority 1999, dated 2004)
